In US20230322865A1 (priority 2020, published 2023):
Peptide text beside a SMILES is read from it. * marks the point of attachment. Propyl(2R-PamO,3-PamO) = CCCCCCCCCCCCCCCC(=O)OC[C@H](C*)OC(=O)CCCCCCCCCCCCCCC; Palmitoyl = CCCCCCCCCCCCCCCC(=O)*

Legend:
[1] = tested on: peptide-specific T-cells; experiment: Self-vaccination of a healthy volunteer with SARS-CoV-2-derived peptides, XS15 and Montanide; assay type: in vivo, human
From the text: Development of antibody-dependent enhancement (ADE) antibodies has been identified as potential risk for infected patients after vaccination approaches; see Graham B S. Rapid COVID-19 vaccine development. Science. 2020. In contrast to other classical vaccines aiming to induce an antibody-response to prevent viral infections the CoVac-1 vaccine is designed to induce SARS-CoV-2 specific T-cells. […] Therefore, there is compared to other vaccine approaches only minimal risk of induction of ADE antibodies by the CoVac-1 vaccine.
A more current report of self-vaccination of the same individual includes the administration of SARS-CoV-2-derived peptides performed in March 2020. Here, the self-experimenting healthy volunteer used eight SARS-CoV-2-derived peptides: five predicted to bind to HLA class I molecules (CD8 peptides) and three predicted to bind to HLA-DR molecules (CD4 peptides, including two peptides from the CoVac-1 vaccine). […] About 3 weeks after a single vaccination, using a vaccine containing the mentioned synthetic peptides, Montanide and containing 50 μg XS15, strong vaccine-induced CD4^+ T-cell responses against all […] HLA-DR peptides and against the recall CMV epitope could be detected. No T-cell responses against the five predicted SARS-CoV-2 HLA class I peptides could be detected by ex vivo Interferon-γ ELISpot assay. […]

[2] = XS15 emulsified in Montanide ISA 51 VG
[3] = cited from earlier work
[4] = tested on: peptide vaccine-specific T-cells; assay type: in vivo, human; details: after one injection, preliminary
[5] = tested on: T-cells in PBMC of patients recovered from SARS-CoV-2 infection; assay type: cell-based, human
[6] = tested on: T-cells of donors never exposed to SARS-CoV-2; assay type: cell-based, human; details: IFN-γ ELISPOT, unexposed donors

Compound | antibody induction against vaccine peptide [1] | Persistence of induced immune responses [2] | Persistence of vaccinated peptides in granuloma on vaccination site [2] | Granuloma volume at injection site (ultrasound) ([3]; 80 μg XS15, days 17 and 41) | Ex vivo T-cell responses in peripheral blood detectable ([3]; single vaccination) | Induction of T-cell responses against vaccine peptides, % of healthy volunteer (HV) and patients [4] [%] | SARS cohort frequency [%] [5] [%] | SARS cohort pos/tested [5] | PRE cohort frequency [%] [6] [%] | PRE cohort pos/tested [6]
CC(C)C[C@H](NC(=O)[C@@H](NC(=O)[C@H](CO)NC(=O)[C@H](Cc1ccc(O)cc1)NC(=O)[C@H](CC(=O)O)NC(=O)[C@H](C)NC(=O)[C@@H](N)C(C)C)C(C)C)C(=O)N[C@@H](Cc1ccc(O)cc1)C(=O)N[C@@H](CC(N)=O)C(=O)N[C@@H](CO)C(=O)N[C@@H](C)C(=O)N[C@@H](CO)C(=O)N[C@@H](Cc1ccccc1)C(=O)N[C@@H](CO)C(=O)N[C@H](C(=O)O)[C@@H](C)O [SEQ ID NO: 6] | no antibody induction was observed |  |  |  |  |  |  |  |  | 
CCCCCCCCCCCCCCCC(=O)N[C@@H](CSC[C@@H](COC(=O)CCCCCCCCCCCCCCC)OC(=O)CCCCCCCCCCCCCCC)C(=O)NCC(=O)N[C@@H](CC(=O)O)C(=O)N1CCC[C@H]1C(=O)N[C@@H](CCCCN)C(=O)N[C@@H](Cc1c[nH]cn1)C(=O)N1CCC[C@H]1C(=O)N[C@@H](CCCCN)C(=O)N[C@@H](CO)C(=O)N[C@@H](Cc1ccccc1)C(=O)O [XS15] (Palmitoyl-C(Propyl(2R-PamO,3-PamO))GDPKHPKSF-OH; C-terminus assumed) |  | more than 1.5 years | at least 7 weeks | about 8 ml | more than one year | 100 |  |  |  | 
ASAFFGMSRIGMEVT (SARS-CoV-2) [SEQ ID NO: 5, SARS-CoV-2 nucleocapsid-derived HLA-DR peptide] |  |  |  |  |  |  | 52 | 12/23 | 6 | 1/18
ASWFTALTQHGKEDL (SARS-CoV-2) [SEQ ID NO: 3, SARS-CoV-2 nucleocapsid-derived HLA-DR peptide] |  |  |  |  |  |  | 59 | 13/22 | 6 | 1/18
FYVYSRVKNLNSSRV (SARS-CoV-2) [SEQ ID NO: 9, SARS-CoV-2 envelope protein-derived HLA-DR peptide] |  |  |  |  |  |  | 50 | 11/22 | 11 | 2/19
ITRFQTLLALHRSYL [SEQ ID NO: 7] |  |  |  |  |  |  | 55 | 12/22 | 5 | 1/20
KDGIIWVATEGALNT (SARS-CoV-2) [SEQ ID NO: 1, SARS-CoV-2 nucleocapsid-derived HLA-DR peptide] |  |  |  |  |  |  | 91 | 20/22 | 44 | 8/18
LLLLDRLNQLESKMS (SARS-CoV-2) [SEQ ID NO: 4, SARS-CoV-2 nucleocapsid-derived HLA-DR peptide] |  |  |  |  |  |  | 64 | 14/22 | 6 | 1/17
RWYFYYLGTGPEAGL (SARS-CoV-2) [SEQ ID NO: 2, SARS-CoV-2 nucleocapsid-derived HLA-DR peptide] |  |  |  |  |  |  | 73 | 16/22 | 6 | 1/18
SKWYIRVGARKSAPL [SEQ ID NO: 10] |  |  |  |  |  |  | 68 | 15/22 | 25 | 4/16
